Measured values from patent publication US20230041563A1, “N-(1,3,4-OXADIAZOL-2-YL)ARYLCARBOXAMIDES OR SALTS THEREOF, PREPARATION METHODS, HERBICIDAL COMPOSITIONS AND USES THEREOF” (priority 2018, published 2023).

Tests used:
Assay type in all cases: in vivo
Abutilon theophrasti [1] = experiment: Weeding effect in post-emergence stage (greenhouse pot spray)
In short: (§1)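 Greenhouse pot plants at the 2–3 leaf stage (2 weeks after sowing) were sprayed with compound in acetone with Tween 80 and methyl oleate EC synergist (1.5 L/ha) at 500, 250, 125, 60 or 15 g a.i./ha. Fresh-weight growth control was scored 3 weeks later, averaged over three replicates.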

Echinochloa crusgalli = experiment: as above
In short: as §1

Setaria viridis = experiment: as above; details: Table 3, dose 60 g a.i./ha
In short: as §1

Digitaria sanguinalis [2] = experiment: as above
In short: as §1

Abutilon theophrasti [3] = experiment: Post-emergence control experiment of R configuration compound activity (weeds 4-5 leaf stage, 25 days); details: 30 g a.i./ha
Method: (§2) Experiment on weeding effect in post-emergence stage: after 3-4 weeks of sowing, the test plants were treated in the 1.5-2 leaf stage of the directly sowed rice Longyang 16, and the 4-5 leaf stage of weeds. After the application of the compounds of the present invention, the plants were cultured for 25 days in the greenhouse, and then the experimental results of the weeding were counted.

Green Setaria viridis = experiment: as above; details: 60 g a.i./ha
Method: as §2

Digitaria sanguinalis [4] = experiment: as above; details: 30 g a.i./ha
Method: as §2

Leptochloa chinensis = experiment: as above; details: 60 g a.i./ha
Method: as §2

Amaranthus retroflexus = experiment: Weeding effect in post-emergence stage (greenhouse pot spray)
In short: as §1

Stellaria media = experiment: as above
In short: as §1

weeds = experiment: Actual control effects and combined effects of mixtures of active ingredients (i) and (ii), stem-leaf treatment, Gowing method; details: stem-leaf treatment, 20 days

## Cc1nnc(NC(=O)c2ccc(C(F)(F)F)c([S+](C)[O-])c2F)o1 (racemic) [Compound 1-2]
Abutilon theophrasti [1]; Table 2, dose 60 g a.i./ha
  Abutilion theophrasti (activity level): 4 (Level 4: growth control rate is greater than or equal to 60% and less than 85%)
Abutilon theophrasti [1]; Table 2, dose 125 g a.i./ha
  Abutilion theophrasti (activity level): 4 (Level 4: growth control rate is greater than or equal to 60% and less than 85%)
Abutilon theophrasti [1]; Table 2, dose 250 g a.i./ha
  Abutilion theophrasti (activity level): 4 (Level 4: growth control rate is greater than or equal to 60% and less than 85%)
Abutilon theophrasti [1]; Table 2, dose 500 g a.i./ha
  Abutilion theophrasti (activity level): 4 (Level 4: growth control rate is greater than or equal to 60% and less than 85%)
Abutilon theophrasti [1]; Table 3, dose 60 g a.i./ha
  Abutilon theophrasti (activity level): 4 (Level 4: growth control rate is greater than or equal to 60% and less than 85%)
Echinochloa crusgalli; Table 2, dose 60 g a.i./ha
  Echinochloa crusgah (activity level): 3 (Level 3: growth control rate is greater than or equal to 40% and less than 60%)
Echinochloa crusgalli; Table 2, dose 125 g a.i./ha
  Echinochloa crusgah (activity level): 4 (Level 4: growth control rate is greater than or equal to 60% and less than 85%)
Echinochloa crusgalli; Table 2, dose 250 g a.i./ha
  Echinochloa crusgah (activity level): 4 (Level 4: growth control rate is greater than or equal to 60% and less than 85%)
Echinochloa crusgalli; Table 2, dose 500 g a.i./ha
  Echinochloa crusgah (activity level): 4 (Level 4: growth control rate is greater than or equal to 60% and less than 85%)
Echinochloa crusgalli; Table 3, dose 60 g a.i./ha
  Echinochloa crusgali (activity level): 3 (Level 3: growth control rate is greater than or equal to 40% and less than 60%)
Setaria viridis
  Setaria viridis (activity level): 3 (Level 3: growth control rate is greater than or equal to 40% and less than 60%)
Digitaria sanguinalis [2]; Table 2, dose 60 g a.i./ha
  Digitaria sanguinalis (activity level): 3 (Level 3: growth control rate is greater than or equal to 40% and less than 60%)
Digitaria sanguinalis [2]; Table 2, dose 125 g a.i./ha
  Digitaria sanguinalis (activity level): 3 (Level 3: growth control rate is greater than or equal to 40% and less than 60%)
Digitaria sanguinalis [2]; Table 2, dose 250 g a.i./ha
  Digitaria sanguinalis (activity level): 4 (Level 4: growth control rate is greater than or equal to 60% and less than 85%)
Digitaria sanguinalis [2]; Table 2, dose 500 g a.i./ha
  Digitaria sanguinalis (activity level): 4 (Level 4: growth control rate is greater than or equal to 60% and less than 85%)
Digitaria sanguinalis [2]; Table 3, dose 60 g a.i./ha
  Digitaria sanguinahs (activity level): 3 (Level 3: growth control rate is greater than or equal to 40% and less than 60%)
Abutilon theophrasti [3]
  Ablation theophrasti (30 g a.i./ha) inhibition rate: 60%
Green Setaria viridis
  Green Setaria viridis (60 g a.i./ha) inhibition rate: 20%
Digitaria sanguinalis [4]
  Digitaria sanguinalis (30 g a.i./ha) inhibition rate: 0%
Leptochloa chinensis
  Leptochloa chinensis (60 g a.i./ha) inhibition rate: 0%
Amaranthus retroflexus; Table 2, dose 60 g a.i./ha
  Amaranthus retroflexus (activity level): 4 (Level 4: growth control rate is greater than or equal to 60% and less than 85%)
Amaranthus retroflexus; Table 2, dose 125 g a.i./ha
  Amaranthus retroflexus (activity level): 4 (Level 4: growth control rate is greater than or equal to 60% and less than 85%)
Amaranthus retroflexus; Table 2, dose 250 g a.i./ha
  Amaranthus retroflexus (activity level): 4 (Level 4: growth control rate is greater than or equal to 60% and less than 85%)
Amaranthus retroflexus; Table 2, dose 500 g a.i./ha
  Amaranthus retroflexus (activity level): 4 (Level 4: growth control rate is greater than or equal to 60% and less than 85%)
Stellaria media; Table 2, dose 60 g a.i./ha
  Stellaria media (activity level): 3 (Level 3: growth control rate is greater than or equal to 40% and less than 60%)
Stellaria media; Table 2, dose 125 g a.i./ha
  Stellaria media (activity level): 3 (Level 3: growth control rate is greater than or equal to 40% and less than 60%)
Stellaria media; Table 2, dose 250 g a.i./ha
  Stellaria media (activity level): 4 (Level 4: growth control rate is greater than or equal to 60% and less than 85%)
Stellaria media; Table 2, dose 500 g a.i./ha
  Stellaria media (activity level): 4 (Level 4: growth control rate is greater than or equal to 60% and less than 85%)
weeds; Cyperus difformis, (i) 1 g a.i./mu
  Control effect of (i) alone at corresponding dose: 7.8%
weeds; Cyperus difformis, (i) 5 g a.i./mu
  Control effect of (i) alone at corresponding dose: 36.5%
weeds; Digitaria sanguinalis, (i) 1 g a.i./mu
  Control effect of (i) alone at corresponding dose: 18.2%
weeds; Digitaria sanguinalis, (i) 2 g a.i./mu
  Control effect of (i) alone at corresponding dose: 40.6%
weeds; Digitaria sanguinalis, (i) 3 g a.i./mu
  Control effect of (i) alone at corresponding dose: 65.3%
weeds; Echinochloa phyllopogon, (i) 1 g a.i./mu
  Control effect of (i) alone at corresponding dose: 12.6%
weeds; Echinochloa phyllopogon, (i) 2 g a.i./mu
  Control effect of (i) alone at corresponding dose: 26.8%
weeds; Echinochloa phyllopogon, (i) 3 g a.i./mu
  Control effect of (i) alone at corresponding dose: 53.7%
weeds; Leptochloa chinensis, (i) 5 g a.i./mu
  Control effect of (i) alone at corresponding dose: 6.5%
weeds; Leptochloa chinensis, (i) 15 g a.i./mu
  Control effect of (i) alone at corresponding dose: 30.6%
weeds; Monochoria vaginalis, (i) 3 g a.i./mu
  Control effect of (i) alone at corresponding dose: 7.8%
weeds; Monochoria vaginalis, (i) 5 g a.i./mu
  Control effect of (i) alone at corresponding dose: 7.8%
weeds; Monochoria vaginalis, (i) 15 g a.i./mu
  Control effect of (i) alone at corresponding dose: 30.9%
weeds; Sagittaria trifolia, (i) 1 g a.i./mu
  Control effect of (i) alone at corresponding dose: 19.7%
weeds; Sagittaria trifolia, (i) 3 g a.i./mu
  Control effect of (i) alone at corresponding dose: 50.3%
